What was measured:
[1] = administration of a moderate fat meal; cited from earlier work
[2] = Raltegravir pharmacokinetics in blood plasma; conditions: for AUC(0-t): AUC 0-12h; for AUC(0-t) / concentration at 12 h / Cmax: BP, median (IQR)
[3] = Raltegravir pharmacokinetics in cervicovaginal fluid; conditions: CVF, median (IQR); for AUC(0-t): AUC 0-12h
[4] = female genital tract compared to BP; cited from earlier work
[5] = female, human, in vivo, 400 mg, first dose, HIV-infected postmenopausal women (n=5)
[6] = female, human, in vivo, 400 mg, steady state, HIV-infected postmenopausal women (n=5)
[7] = female, human, in vivo, 400 mg, steady state, HIV-infected premenopausal women (n=6)
[8] = female, human, in vivo, 400 mg, C12, first dose, HIV-infected postmenopausal women (n=5)
[9] = female, human, in vivo, 400 mg, C12, steady state, HIV-infected postmenopausal women (n=5)
[10] = female, human, in vivo, 400 mg, C12, steady state, HIV-infected premenopausal women (n=6)
[11] = female, human, in vivo, 400 mg, Cmax, first dose, HIV-infected postmenopausal women (n=5)
[12] = female, human, in vivo, 400 mg, Cmax, steady state, HIV-infected premenopausal women (n=6)

In the case of `Cc1nnc(C(=O)NC(C)(C)c2nc(C(=O)NCc3ccc(F)cc3)c(O)c(=O)n2C)o1` [raltegravir], the “increase in AUC” value [1] is listed as 13%, the AUC(0-t) [2, 5] is listed as 4240 ng·h/mL and the AUC(0-t) ([2]; female, human, in vivo, 400 mg, first dose, HIV-negative premenopausal women (n=7)) is listed as 3100 ng·h/mL. For the same compound, the AUC(0-t) [2, 6] was 6180 ng·h/mL, the AUC(0-t) [2, 7] was 5760 ng·h/mL and the AUC(0-t) ([2]; female, human, in vivo, 400 mg, steady state, HIV-negative premenopausal women (n=7)) was 8440 ng·h/mL. It also gave a concentration at 12 h [2, 8] of 222 ng/mL, a concentration at 12 h ([2]; female, human, in vivo, 400 mg, C12, first dose, HIV-negative premenopausal women (n=7)) of 54 ng/mL and a concentration at 12 h [2, 9] of 310 ng/mL. It also gave a concentration at 12 h [2, 10] of 23 ng/mL, a concentration at 12 h ([2]; female, human, in vivo, 400 mg, C12, steady state, HIV-negative premenopausal women (n=7)) of 303 ng/mL and a Cmax [2, 11] of 1660 ng/mL. For the same compound, the Cmax ([2]; female, human, in vivo, 400 mg, Cmax, first dose, HIV-negative premenopausal women (n=7)) was 790 ng/mL, the Cmax ([2]; female, human, in vivo, 400 mg, Cmax, steady state, HIV-infected postmenopausal women (n=5)) was 1170 ng/mL and the Cmax [2, 12] was 1980 ng/mL. The “time after dosing by which all subjects had detectable concentrations in BP” value ([2]; first dose, HIV-negative premenopausal and HIV-infected postmenopausal women) was ≤ 1 h, the Cmax ([2]; steady state, HIV-negative premenopausal women (n=7)) was 1874 (587-2166) ng/mL and the AUC(0-t) [3, 5] was 13800 ng·h/mL. It also gave an AUC(0-t) ([3]; female, human, in vivo, 400 mg, first dose, HIV-negative premenopausal women (n=7), BLD imputed 0.1 ng/ml) of 1720 ng·h/mL, an AUC(0-t) [3, 6] of 9570 ng·h/mL and an AUC(0-t) [3, 7] of 11500 ng·h/mL. It also gave an AUC(0-t) ([3]; female, human, in vivo, 400 mg, steady state, HIV-negative premenopausal women (n=7), BLD imputed 0.1 ng/ml) of 3160 ng·h/mL, a concentration at 12 h [3, 8] of 1290 ng/mL and a concentration at 12 h [3, 9] of 958 ng/mL. The concentration at 12 h [3, 10] was 447 ng/mL, the Cmax [3, 11] was 4780 ng/mL and the Cmax [3, 12] was 1920 ng/mL. The Cmax ([3]; steady state, HIV-infected postmenopausal women (n=5)) was 2841 (326-4430) ng/mL.

For `C[C@@H]1CCO[C@H]2Cn3cc(C(=O)NCc4ccc(F)cc4F)c(=O)c(O)c3C(=O)N12` [dolutegravir], the “CVF:BP AUC ratio” value [4] is given as 0.07.
